Tested on: Visna-Virus
Experiment: Visna virus test: inhibition of virus-induced cytopathic effect in infected sheep fibroblast cell cultures
Format: cell-based
Design: key to Antivirale Wirkung in der Zellkultur*: 3 = kompletter antiviraler Schutzeffekt; 100% Schutz der Zellen vor der Infektion; 2 = 50% Schutzeffekt der infizierten Zellkultur; 1- 10 - 20% Schutzeffekt der infizierten Zellkultur; 0 = komplette Zerstörung der infizierten Zellkultur
Conditions: for Antivirale Wirkung in der Zellkultur*: compound alone, Schafszellen
Description: In Zellkulturen, die mit Visna-Virus infiziert sind, treten 5 bis 10 Tage nach der Infektion ausgeprägte virusinduzierte, zytopathische Effekte auf. Durch Behandlung der infizierten Zellkulturen mit den erfindungsgemäßen Kombinationen von Verbindungen der allgemeinen Formel (I) und Interferon konnte das Auftreten dieser zytopathischen Effekte verhindert werden.
Der Visna-Virus-Test wurde nach der Methode von 0. Narayan et al., Journal of Infectious Diseases 135, 5, 1977, 800 - 806 durchgeführt. Dazu wurden die erfindungsgemäßen Kombinationen von Verbindungen der allgemeinen Formel (I) und Interferon im Kulturmedium zu nicht zytotoxischen Konzentrationen verdünnt, und zwar in 96er Microtiterplatten. Anschließend wurden zu jeder Verdünnung der Wirkstoffe Schafsfibroblastenzellen (5 x 10⁴ Zellen pro Napf) in Kulturmedium zugeführt.
Jedes Näpfchen erhielt dann 50 µl einer Visna-Viruslösung mit einem Titer von ca. 2,5 x 10⁴ TCID₅₀ (TCID = tissue culture infectious dosis). Diese Virusdosis entspricht einer MOI (Multiplizität der Infektion) von ca. 0,05.
Unter diesen Infektionsbedingungen resultierte zwischen Tag 5 und Tag 10 in einer Infektionskontrolle ohne Substanz ein virusinduzierter, zytopathischer Effekt. Die infizierten und behandelten Zellen und die Kontrollzellen wurden 7 Tage bei 37°C, 5% CO₂ inkubiert.
Bei Auftreten des virusinduzierten zytopathogenen Effektes in der unbehandelten Viruskontrolle wurden die Kulturen mit Formalin fixiert und anschließend mit einer Giemsa-Lösung gefärbt. Die inhibitorische Konzentration (IC₅₀) wurde mikroskopisch als die Konzentration ermittelt, bei der der zytopathische Effekt um 50% gehemmt wurde, im Vergleich zur unbehandelten Viruskontrolle, die 100% Zellzerstörung aufwies.

CC(C)c1ccc(NC(=O)CCN2C[C@@H](O)[C@@H](O)[C@H](O)[C@H]2CO)cc1 [3-(1,5-Didesoxy-1,5-imino-D-mannit-N-yl)-propionsäure-4-isopropyl-anilid]
Reduktion der Konzentration der Einzelkomponenten um den Faktor (by combining both active substances, versus the single component alone): 30 | Antivirale Wirkung in der Zellkultur* (Konzentration der Testsubstanz 0,03 mg/ml): 2 (2 = 50% Schutzeffekt der infizierten Zellkultur) | Antivirale Wirkung in der Zellkultur* (Konzentration der Testsubstanz 0,5 mg/ml): 3 (3 = kompletter antiviraler Schutzeffekt; 100% Schutz der Zellen vor der Infektion) | Antivirale Wirkung in der Zellkultur* (Konzentration der Testsubstanz 0,06 mg/ml): 3 (3 = kompletter antiviraler Schutzeffekt; 100% Schutz der Zellen vor der Infektion) | Antivirale Wirkung in der Zellkultur* (Konzentration der Testsubstanz 0,25 mg/ml): 3 (3 = kompletter antiviraler Schutzeffekt; 100% Schutz der Zellen vor der Infektion) | Antivirale Wirkung in der Zellkultur* (Konzentration der Testsubstanz 0,001 mg/ml): 0 | Antivirale Wirkung in der Zellkultur* (Konzentration der Testsubstanz 1 mg/ml): 3 (3 = kompletter antiviraler Schutzeffekt; 100% Schutz der Zellen vor der Infektion) | Antivirale Wirkung in der Zellkultur* (Konzentration der Testsubstanz 0,003 mg/ml): 0 | Antivirale Wirkung in der Zellkultur* (Konzentration der Testsubstanz 0,007 mg/ml): 0 | Antivirale Wirkung in der Zellkultur* (Konzentration der Testsubstanz 0,015 mg/ml): 1 (1- 10 - 20% Schutzeffekt der infizierten Zellkultur) | Antivirale Wirkung in der Zellkultur* (Konzentration der Testsubstanz 0,125 mg/ml): 3 (3 = kompletter antiviraler Schutzeffekt; 100% Schutz der Zellen vor der Infektion)
